The text below walks through data of patent US20250145665A1, “MACROCYCLIC PEPTIDES USEFUL AS MODULATORS OF TNF ALPHA” (Bristol-Myers Squibb Company, priority 2023, published 2025).

Each structure is given as a SMILES string. Starred links: 1 amine or outer side, 2 acyl side, 3 side chain; linkers in the order of their positions; H or OH if unused. Positions of bridges follow the written chain, without caps; N, C: chain ends. Non-standard residues stand in square brackets, D forms with d. Residues, ends and D or L forms follow the SMILES beside them. *: point of attachment. Bip(4'-NHCO-C6H4-4-CH2COOH) = N[C@@H](Cc1ccc(-c2ccc(NC(=O)c3ccc(CC(=O)O)cc3)cc2)cc1)C(=O)O; Bip(4'-NH) = O=C([C@H](Cc1ccc(-c2ccc(N[*:3])cc2)cc1)N[*:1])[*:2]; dArg(ω-Bn(3-CH2OH)) = N=C(NCCC[C@@H](N)C(=O)O)NCc1cccc(CO)c1; Bip(4'-COOH) = N[C@@H](Cc1ccc(-c2ccc(C(=O)O)cc2)cc1)C(=O)O; Bip(4'-NHAc) = CC(=O)Nc1ccc(-c2ccc(C[C@H](N)C(=O)O)cc2)cc1; Ala(morpholin-4-yl) = N[C@@H](CN1CCOCC1)C(=O)O; Benzoyl(3-OCH2COOH) = O=C(O)COc1cccc(C(=O)*)c1; Benzoyl(4-OCH2COOH) = O=C(O)COc1ccc(C(=O)*)cc1; Phe(3-CONH2) = NC(=O)c1cccc(C[C@H](N)C(=O)O)c1; Bip = N[C@@H](Cc1ccc(-c2ccccc2)cc1)C(=O)O; Phe(4-NH2) = Nc1ccc(C[C@H](N)C(=O)O)cc1; Ala(2-furyl) = N[C@@H](Cc1ccco1)C(=O)O; 2Pal = N[C@@H](Cc1ccccn1)C(=O)O; Tic = O=C(O)[C@@H]1Cc2ccccc2CN1; 2Thi = N[C@@H](Cc1cccs1)C(=O)O; Cha = N[C@@H](CC1CCCCC1)C(=O)O; Tle = CC(C)(C)[C@H](N)C(=O)O; Sar = CNCC(=O)O

Chain of TNFα (P01375 77-233 limits assumed): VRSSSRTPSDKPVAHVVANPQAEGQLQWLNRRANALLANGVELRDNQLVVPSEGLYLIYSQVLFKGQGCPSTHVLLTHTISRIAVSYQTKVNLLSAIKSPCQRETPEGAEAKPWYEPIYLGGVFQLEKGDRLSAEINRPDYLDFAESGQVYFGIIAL

The experiment addresses TNFα (Homo sapiens, UniProt P01375). Kind of experiment: TNF-Induced HEK-Blue Assay. The format is cell-based. Conditions: HEK-Blue-CD40L cells, NF-kB-driven secreted alkaline phosphatase reporter; TNFα 0.5 ng/ml; 18 h; read-out: TNF induced HEK-Blue assay IC50 value.
On to `CC(C)C[C@@H]1NC(=O)[C@H](Cc2cnc[nH]2)NC(=O)[C@H](C(C)C)NC(=O)[C@@H]2CCCN2C(=O)[C@H](C(C)C)NC(=O)[C@@H](CCCNC(=N)N)NC(=O)[C@H](CC(=O)O)NC(=O)[C@H](Cc2cnc[nH]2)NC(=O)CN(C)C(=O)[C@H](Cc2ccc(-c3ccc(NC(=O)c4ccc(OCC(=O)O)cc4)cc3)cc2)NC(=O)[C@H](Cc2ccc(-c3ccccc3)cc2)NC(=O)[C@H](CN2CCOCC2)NC(=O)CSC[C@@H](C(=O)NCC(N)=O)NC1=O` [Example 495] ({CH2CO}-[Ala(morpholin-4-yl)][Bip][Bip(4'-NH)](Benzoyl(4-OCH2COOH))[Sar]HD[dR]VPVHLCG-NH2; thioether N-13), for which the half-inhibitory concentration (IC50) was under 50 nM.

With `CC(C)C[C@@H]1NC(=O)[C@H](Cc2cccs2)NC(=O)[C@H](C(C)C)NC(=O)[C@@H]2CCCN2C(=O)[C@H](C(C)C)NC(=O)[C@@H](CCCNC(=N)N)NC(=O)[C@H](CC(=O)O)NC(=O)[C@H](Cc2ccccn2)NC(=O)CN(C)C(=O)[C@H](Cc2ccc(-c3ccc(NC(=O)c4cccc(OCC(=O)O)c4)cc3)cc2)NC(=O)[C@H](Cc2ccc(-c3ccccc3)cc2)NC(=O)[C@H](CN2CCOCC2)NC(=O)CSC[C@@H](C(=O)NCC(N)=O)NC1=O` [Example 606] ({CH2CO}-[Ala(morpholin-4-yl)][Bip][Bip(4'-NH)](Benzoyl(3-OCH2COOH))[Sar][2Pal]D[dR]VPV[2Thi]LCG-NH2; thioether N-13), the IC50 was under 50 nM.

As to `CC[C@H](C)[C@@H]1NC(=O)[C@@H](CCCNC(=N)NCc2cccc(CO)c2)NC(=O)[C@H](CC(=O)O)NC(=O)[C@H](Cc2cnc[nH]2)NC(=O)CN(C)C(=O)[C@H](Cc2ccc(-c3ccc(NC(=O)c4cccc(OCC(=O)O)c4)cc3)cc2)NC(=O)[C@H](Cc2ccc(-c3ccccc3)cc2)NC(=O)[C@H](CC2CCCCC2)NC(=O)CSC[C@@H](C(=O)NCC(N)=O)NC(=O)[C@H](CC(C)C)NC(=O)[C@H](Cc2cnc[nH]2)NC(=O)[C@H](C(C)C)NC(=O)[C@@H]2CCCN2C1=O` [Example 498] ({CH2CO}-[Cha][Bip][Bip(4'-NH)](Benzoyl(3-OCH2COOH))[Sar]HD[dArg(ω-Bn(3-CH2OH))]IPVHLCG-NH2; thioether N-13), the IC50 lay in the range of 50 to 200 nM.

Consider `CC[C@H](C)[C@@H]1NC(=O)[C@@H]2CCCN2C(=O)[C@H]([C@@H](C)CC)NC(=O)[C@@H](CCCNC(=N)N)NC(=O)[C@H](CC(=O)O)NC(=O)[C@H](Cc2ccco2)NC(=O)CN(C)C(=O)[C@H](Cc2ccc(-c3ccc(NC(C)=O)cc3)cc2)NC(=O)[C@H](Cc2ccc(-c3ccccc3)cc2)NC(=O)[C@H](C(C)(C)C)NC(=O)CSC[C@@H](C(=O)NCC(N)=O)NC(=O)[C@H](CC(C)C)NC(=O)[C@H](Cc2ccc(O)cc2)NC1=O` [Example 298] ({CH2CO}-[Tle][Bip][Bip(4'-NHAc)][Sar][Ala(2-furyl)]D[dR]IPIYLCG-NH2; thioether N-13), for which the IC50 was in the range of 50 to 200 nM.

In the case of `CC(=O)Nc1ccc(-c2ccc(C[C@@H]3NC(=O)[C@H](Cc4ccc(-c5ccc(C(=O)O)cc5)cc4)NC(=O)[C@H](CC4CCCCC4)NC(=O)CSC[C@@H](C(=O)NCC(N)=O)NC(=O)[C@H](CC(C)C)NC(=O)[C@H](Cc4cccc(C(N)=O)c4)NC(=O)[C@H](C(C)C)NC(=O)[C@@H]4CCCN4C(=O)[C@H](C(C)C)NC(=O)[C@@H](CCCNC(=N)N)NC(=O)[C@H](CC(=O)O)NC(=O)[C@H](Cc4ccccn4)NC(=O)CN(C)C3=O)cc2)cc1` [Example 251] ({CH2CO}-[Cha][Bip(4'-COOH)][Bip(4'-NHAc)][Sar][2Pal]D[dR]VPV[Phe(3-CONH2)]LCG-NH2; thioether N-13), the IC50 is under 50 nM.

On to `CC(C)C[C@@H]1NC(=O)[C@H](CCCNC(=N)N)NC(=O)[C@H](C(C)C)NC(=O)[C@@H]2CCCN2C(=O)[C@H](C(C)C)NC(=O)[C@H](CCCNC(=N)N)NC(=O)[C@H](CC(=O)O)NC(=O)[C@@H]2Cc3ccccc3CN2C(=O)CN(C)C(=O)[C@H](Cc2ccc(-c3ccccc3)cc2)NC(=O)[C@H](Cc2ccc(-c3ccccc3)cc2)NC(=O)[C@H](Cc2ccccc2)NC(=O)CSC[C@@H](C(=O)NCC(N)=O)NC1=O` [Example 45] ({CH2CO}-F[Bip][Bip][Sar][Tic]DRVPVRLCG-NH2; thioether N-13), for which the IC50 lay in the range of 200 to 2000 nM.

In the case of `CC[C@H](C)[C@@H]1NC(=O)[C@@H](CCCNC(=N)N)NC(=O)[C@H](CC(=O)O)NC(=O)[C@H](Cc2cnc[nH]2)NC(=O)CN(C)C(=O)[C@H](Cc2ccc(-c3ccc(NC(=O)c4ccc(CC(=O)O)cc4)cc3)cc2)NC(=O)[C@H](Cc2ccc(-c3ccc(C(=O)O)cc3)cc2)NC(=O)[C@H](CC2CCCCC2)NC(=O)CSC[C@@H](C(=O)NCC(N)=O)NC(=O)[C@H](CC(C)C)NC(=O)[C@H](Cc2cccc(C(N)=O)c2)NC(=O)[C@H](C(C)C)NC(=O)[C@@H]2CCCN2C1=O` [Example 589] ({CH2CO}-[Cha][Bip(4'-COOH)][Bip(4'-NHCO-C6H4-4-CH2COOH)][Sar]HD[dR]IPV[Phe(3-CONH2)]LCG-NH2; thioether N-13), the half-inhibitory concentration (IC50) is under 50 nM.

For the compound `CC(C)C[C@@H]1NC(=O)[C@H](CCCNC(=N)N)NC(=O)[C@H](C(C)C)NC(=O)[C@@H]2CCCN2C(=O)[C@H](Cc2ccc(N)cc2)NC(=O)[C@H](CCCNC(=N)N)NC(=O)[C@H](CC(=O)O)NC(=O)[C@@H]2CCCN2C(=O)CN(C)C(=O)[C@H](Cc2ccc(-c3ccccc3)cc2)NC(=O)[C@H](Cc2ccc(-c3ccccc3)cc2)NC(=O)[C@H](CN2CCOCC2)NC(=O)CSC[C@@H](C(=O)NCC(N)=O)NC1=O` [Example 55] ({CH2CO}-[Ala(morpholin-4-yl)][Bip][Bip][Sar]PDR[Phe(4-NH2)]PVRLCG-NH2; thioether N-13), the IC50 was 50 to 200 nM.
